Laboratory results published in article PMC3790770 (PLoS ONE, 2013).

Biological target: T1, maltose binding protein (MBP) (Escherichia coli, UniProt P0AEX9)
T1 construct: resulting in an ampicillin-resistant plasmid that expresses cytoplasmic, full-length MBP; made in house
Test: Titration monitored by tryptophan fluorescence peak wavelength
Conditions: sucrose up to ∼[…] without maltose and ∼0.9 M with maltose, 37 °C, pH 7.2
Description: Experiments were performed on a Cary 300 Fluorimeter using 200 nM MBP in 100 mM sodium phosphate buffer (pH 7.2) at 37 °C. […] Crowder titrations were conducted with multiple samples, as addition of crowding agent to concentrations reaching 300 g/L was not feasible in the same sample without large volume and MBP concentration changes.
Data were analyzed using two different models: a two-state binding model (Figure 2A), and a three-state competitive binding model (Scheme 1).
Now, [P] represented the sum of the two ligand-free species, i.e., the free protein P and the protein-crowder complex.

OC[C@H]1O[C@@](CO)(O[C@H]2O[C@H](CO)[C@@H](O)[C@H](O)[C@H]2O)[C@@H](O)[C@@H]1O [sucrose]
binding to MBP (sucrose titration): no apparent 1∶1 binding to MBP
